Earlier results as cited in patent US20100129295A1, “Compositions for preventing and/or treating gingivitis” (priority 2008, published 2010).

Legend:
[1] = females taking supplements; 27 females with gingivitis compared with women without
[2] = tested on: TNF-α induced cellular responses
[3] = biological target: TNF-α (Homo sapiens, UniProt P01375)
[4] = tested on: Kupffer cells

TNF-α, sequence (P01375 whole entry, species assumed): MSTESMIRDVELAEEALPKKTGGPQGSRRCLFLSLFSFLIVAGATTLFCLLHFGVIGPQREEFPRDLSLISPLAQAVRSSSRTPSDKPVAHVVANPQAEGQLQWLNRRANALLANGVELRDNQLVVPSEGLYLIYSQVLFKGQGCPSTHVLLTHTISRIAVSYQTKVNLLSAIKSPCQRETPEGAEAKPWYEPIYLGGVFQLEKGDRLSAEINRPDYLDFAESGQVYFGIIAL

For `Cc1cc2nc3c(=O)[nH]c(=O)nc-3n(C[C@H](O)[C@H](O)[C@H](O)CO)c2cc1C` [vitamin B2], the risk of gingivitis [1] is listed as “reduced risk”.
For `Cc1oncc1C(=O)Nc1ccc(C(F)(F)F)cc1` [leflunomide], the “TNF-α induced cellular responses” value [2] is listed as “suppresses”.
For `[Ca+2]` [calcium], the risk of gingivitis [1] is given as “reduced risk”.
In the case of `Cc1cc(C(=O)Nc2ccc(Cl)cc2)no1` [UTL-5d], the “inhibition of TNF-α” value [3] is given as “inhibition”.
In the case of `C/C(O)=C(\C#N)C(=O)Nc1ccc(C(F)(F)F)cc1` [A 771726, teriflunomide], the “TNF-α and IL-1 from Kupffer cells” value [4] is listed as “inhibits”.
